Test results: PMC6748986, “Potent modulation of the CepR quorum sensing receptor and virulence in a Burkholderia cepacia complex member using non-native lactone ligands” (Scientific Reports, 2019)

What was measured:
CepR [1] = target: T1, CepR (Burkholderia cenocepacia, UniProt B4EMD0); test: CepR agonism in E. coli β-galactosidase reporter (Ec-reporter) JLD271 [pJN105-cepR + pSC11-cepI]; type: cell-based, B. cenocepacia; conditions: for Act%: Table S2, Ec-reporter, screening conc. 100 μM; for EC50: agonism dose-response; for Maximal Activation (%): activity for 100 μM C8-AHL set to 100%, error ±10%
T1 sequence (B4EMD0 1-239): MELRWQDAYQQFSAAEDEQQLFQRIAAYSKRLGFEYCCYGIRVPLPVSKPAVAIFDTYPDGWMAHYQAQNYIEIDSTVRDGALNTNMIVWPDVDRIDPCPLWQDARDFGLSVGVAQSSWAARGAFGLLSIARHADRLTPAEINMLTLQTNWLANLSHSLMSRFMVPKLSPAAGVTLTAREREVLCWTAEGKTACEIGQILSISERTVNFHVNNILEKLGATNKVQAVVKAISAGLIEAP
Text: (§1) We began our study by screening the AHL library for CepR modulators using an E. coli-based two plasmid reporter system (Ec-reporter)[38]–[40]. Certain members of the Bcc harbor additional QS systems that are either AHL-based (e.g., BviI/BviR in B. vietnamiensis)[41] or diffusible signal factor (DSF)-based (B. cenocepacia)[42], and at least one member of the Bcc has multiple receptors that respond to C8-AHL (e.g., CepR and CepR2 in B. cenocepacia)[43]. Thus, we reasoned that using a CepR reporter in a heterologous background could simplify our initial analyses. We modified our previously reported E. coli-based two plasmid β-galactosidase reporter system to develop a CepR Ec-reporter (see Methods). The first plasmid, pJN105-cepR, contains CepR from B. cenocepacia under the control of the L-arabinose inducible pBAD promoter. A second plasmid contains a transcriptional fusion of lacZ to the cepI promoter region. The two plasmids were co-transformed into a QS mutant E. coli strain (JLD271 ∆sdiA) that lacks its LuxR-type receptor, SdiA. Using this reporter system, if an exogenously -added compound is able to interact with CepR, this will affect the protein’s interaction with the cepI promoter region and alter β-galactosidase production. Enzyme production, and thereby CepR activity, is then measurable via the degradation of a colorimetric substrate for β-galactosidase. Using this new Ec-reporter, we observed robust activity of CepR in response to its native ligand C8-AHL, with an EC50 of 5 nM (Table 1).
We used the CepR Ec-reporter to perform a primary agonism screen at a single compound concentration (100 μM, or its solubility limit, indicated in Table S1). Thirty-one compounds displaying ≥70% agonistic activity in CepR (relative to C8-AHL) were identified and subjected to dose-response analyses using the Ec-reporter (Table I; see Table S2 for complete screening data and Fig. S3 for dose-response curves).
(§2) E. coli β-galactosidase reporter assays (derived from ref.[63]) and reagents used to obtain primary screening and dose-response data were performed as previously described[22],[60],[64], with the following modifications: E. coli JLD271 (∆sdiA) was co-transformed iteratively with pSC11-cepI and pJN105-cepR via electroporation. A single colony was used to start overnight cultures in LB medium + ampicillin (100 μg/mL) + gentamicin (15 μg/mL). A 1:10 dilution of overnight culture was grown in fresh medium to OD600 = 0.25. A sterile solution of L-arabinose in water (27 mM final concentration) was added to induce protein expression, after which cells were plated in 96-well plates containing varying concentrations of compound (200 μL total volume).
(§3) Cells were grown for 4 h, OD600 was read, 50 μL aliquots from each well were permeabilized in 200 μL Z Buffer, and then 150 μL of this mixture used to measure the cleavage of 25 μL of 4 mg/mL CPRG in phosphate buffered saline (PBS) at 37 °C until positive control wells developed a deep red color (~30 min). For all agonism assays, synthetic compound (100 μM) was screened alongside and compared to the native ligand, C8-AHL (100 μM). For all primary and dose-response antagonism assays, the concentration of native ligand utilized was 10 nM (approximately equal to twice its EC50 value). […] At least 3 separate trials were performed using unique cultures on separate days.

CepR [2] = target: T1, CepR; test: CepR antagonism in E. coli β-galactosidase reporter (Ec-reporter), competition against C8-AHL; type: cell-based, B. cenocepacia; conditions: for Inh% (100-Act%): Table S3, Ec-reporter, screening conc. 100 μM
Text: as §1
To identify antagonists of CepR, we screened the AHL library (at 100 μM) in competition against the native ligand C8-AHL (at approximately twice its EC50 value, 0.01 μM) in the Ec-reporter. […] The active compounds were subjected to dose-response analyses in the Ec-reporter to obtain IC50 values and assess their relative potencies (Table 2; see Table S3 for complete screening data and Fig. S3 for dose-response curves). One general trend that we noted at the outset was the majority of the antagonists had acyl tails of similar or shorter overall length than CepR’s native ligand, C8-AHL. From this set, the strongest antagonists could be divided into two classes: (i) “short alkyl tail” AHLs or analogs thereof, and (ii) phenylacetanoyl HLs (PHLs). The discovery that the latter compounds were CepR antagonists was perhaps not surprising, as we have found substituted PHLs to strongly antagonize the majority of the LuxR-type receptors studied in our laboratory to date[22],[24],[29],[45],[46].
as §2, §3

| Structure (SMILES) | Act% (CepR [1]) | Inh% (100-Act%) (CepR [2]; against 10 nM C8-AHL) | other results |
| --- | --- | --- | --- |
| CCCCCCCCCC(=O)CC(=O)Nc1ccccc1 [Compound V-06-018, reference compound] | – | – | Act% (CepR [1]; listed as V-06-01 8): 2.4%; Inh% (100-Act%) (CepR [2]; against 10 nM C8-AHL, listed as V-06-01 8): -20% |
| O=C(CCc1ccccc1)N[C@H]1CCOC1=O [Compound B9] | 88% | -40% | EC50 fold higher than those for substituted PPHLs (CepR [1]; Ec-reporter): ~ 1000 fold; EC50 (CepR [1]; Ec-reporter): 1000 nM; Maximal Activation (%) (CepR [1]; Ec-reporter): 88% |
| CCCCCCC(=O)N[C@H]1CCOC1=O [Compound C7-AHL, reference compound] | 106% | -10% | – |
| CCCCCCCCCCCCCC(=O)CC(=O)NC1CCOC1=O (stereo not shown) [3’O-C16-AHL, reference compound] | 8.3% | -50% | – |
| O=C(C=Cc1ccccc1)NC1CCOC1=O (stereo not shown) [Compound B10] | 60% | 11% | – |
| O=C(CC(=O)N[C@H]1CCOC1=O)Cc1cccc(Cl)c1 [Compound H23] | 53% | -20% | – |
| O=C(COc1ccc(OC(F)(F)F)cc1)N[C@H]1CCOC1=O [Compound D15] | 46% | -20% | – |
| CC(C)(C)OC(=O)NCCCCC(=O)N[C@H]1CCOC1=O [Compound D1] | 16% | 11% | – |
| O=C(CCc1cccs1)N[C@H]1CCOC1=O [Compound D3] | 87% | -40% | – |
| O=C(COc1ccc([N+](=O)[O-])cc1)N[C@H]1CCOC1=O [Compound E24] | 75% | -10% | – |
| O=C(COc1ccc(F)cc1)N[C@H]1CCOC1=O [Compound E19] | 42% | 22% | – |
| O=C(Cc1ccc(Br)cc1)NC1CCSC1=O (stereo not shown) [Compound F10] | 0.5% | 6.0% | CepR antagonism in words (CepR [2]; Ec-reporter): dramatic losses in activity |
| CCCCCCCCCCCCCC(O)CC(=O)NC1CCOC1=O (stereo not shown) [3’OH-C16-AHL, reference compound] | 8.0% | -50% | – |
| O=C(Cc1ccccc1)N[C@H]1CCOC1=O [Compound C1] | 0.0% | – | CepR antagonism in words (CepR [2]; Ec-reporter): inactive; Maximal Inhibition (%) (CepR [2]; Ec-reporter, against 10 nM C8-AHL): 8% |
| CCCc1ccc(C(=O)CCC(=O)N[C@H]2CCOC2=O)cc1 [Compound D7] | 18% | 15% | – |
| O=C(Cc1c(F)c(F)c(F)c(F)c1F)N[C@H]1CCOC1=O [Compound C16] | 0.1% | -30% | – |
| O=C(CCCc1c[nH]c2ccccc12)NC1CCCC1 [Compound F21] | -4.0% | 25% | – |
| Cc1cccc(CC(=O)N[C@H]2CCOC2=O)c1 [Compound E1] | 16% | 11% | – |
| O=C(CCc1c[nH]c2ccccc12)N[C@H]1CCOC1=O [Compound B14] | 96% | -40% | – |
| O=C(CC1CCCCC1)N[C@H]1CCOC1=O [Compound S7] | 7.6% | 20% | – |
| CCCCCOc1ccc(C(=O)N[C@H]2CCOC2=O)cc1 [Compound R5] | 95% | -10% | – |
| CCCCCCCCCC(=O)NC1CCCC1 [Compound C10-CPA, reference compound] | 48% | 4.0% | – |
| CCCCCCCCCCCC(=O)N[C@H]1CCOC1=O [Compound C12-AHL, Dodecanoyl L-homoserine lactone, reference compound] | 98% | -30% | EC50 (CepR [1]; Ec-reporter): 310 nM; Maximal Activation (%) (CepR [1]; Ec-reporter): 98% |
| Cc1cccc(OCC(=O)N[C@H]2CCOC2=O)c1 [Compound E16] | 11% | 21% | – |
| O=C(Cc1ccc(-c2ccccc2)cc1)N[C@H]1CCOC1=O [Compound C18] | 1.4% | -20% | – |
| Cc1ccc(C(=O)CCC(=O)N[C@H]2CCOC2=O)cc1 [Compound D6] | 61% | -50% | – |
| CC(C)(C)OC(=O)Nc1ccc(CC(=O)N[C@H]2CCOC2=O)cc1 [Compound C22] | 1.1% | -70% | – |
